Results as given in US9526720B2, “Modulators of hepatic lipoprotein metabolism” (The Broad Institute, Inc., priority 2012, dated 2016).

How the values were obtained:
[1] = tested on: SCD1; test: qPCR SCD1 transcript level in HepG2 cells; type: cell-based; details: Homo sapiens, 20 h
Description: (§1) In the primary screen, HepG2 cells were plated in 384-well plates at 2000 cells per well and incubated for 20 hours with each compound in duplicate at 10 microM concentration. Then RNA was isolated, reverse-transcribed to cDNA, and stored at −80° C. Expression levels of TRIB1 and other target genes, such as SORT1 and PCSK9, were determined by quantitative PCR. Relative gene expression level was normalized to expression of the housekeeping gene, GAPDH. A “hit” was defined as those compounds that caused a greater than 2-fold increase in relative target gene expression when normalized to GAPDH expression, compared to DMSO-treated control. Using these criteria, 130 hits were identified for TRIB1 (0.8% hit rate).
(§2) Further analysis of the expression levels of various proteins in the cholesterol and triglyceride biosynthetic pathways in response to TRIB1 inducer treatment was performed. In particular, transcript levels of additional lipoprotein metabolism pathway proteins SCAP, SREBF1, SREBF2, HMGCR, HMGCS, SCD1, FASN and MTTP were assessed by qPCR, along with TRIB1, LDLR, and PCSK9. The gene expression profile for the same subset of genes was also assessed after treatment with the statin atorvastatin (Lipitor), commonly used in therapy for hypercholesterolemia and other cardiovascular diseases.

[2] = tested on: PCSK9; test: qPCR PCSK9 expression in HepG2 cells; type: cell-based, human; details: for fold induction at 10 µM: Homo sapiens, 20 h, HepG2 cells
Description: as §1, §2
(§3) The kinetics of the modulation of TRIB1, LDLR, PCSK9 and MTTP gene expression after treatment by select TRIB1 inducer compounds was monitored by qPCR analysis (FIG. 4). RNA was extracted from cells at various timepoints over 28 hours of treatment (0, 2, 4, 6, 8, 24, 28 hours). Specifically, compounds 12a and 14a induced transcriptional responses over time similar to those produced by berberine, a plant alkaloid used in Chinese medicine. […] Both compound 12a and compound 14a induce TRIB1 and LDLR and repress PCSK9 and MTTP expression with similar kinetics and similar fold change as berberine Importantly, both compounds induce these gene expression changes at much lower concentrations than berberine. […] This increased potency indicates the potential therapeutic efficacy of such compounds for treatment of cardiovascular diseases, particularly hypercholesterolemia and related conditions.

[3] = tested on: FASN; test: qPCR FASN transcript level in HepG2 cells; type: cell-based; details: Homo sapiens, 20 h
Description: as §1, §2

[4] = tested on: HMGCR; test: qPCR HMGCR transcript level in HepG2 cells; type: cell-based, human; design: key: A: Increase <2-fold; B: Increase >2-fold; X: Decrease <2-fold; Y: Decrease >2-fold; No significant change
Description: as §1, §2

[5] = tested on: SREBF1; test: qPCR SREBF1 transcript level in HepG2 cells; type: cell-based, human; design: key: A: Increase <2-fold; B: Increase >2-fold; X: Decrease <2-fold; Y: Decrease >2-fold; No significant change
Description: as §1, §2

[6] = tested on: ApoB; test: ELISA of secreted ApoB in HepG2 cells; type: cell-based, human; details: HepG2 cells
Description: (§4) Additional secondary assays were performed in HepG2 cells to further characterize the cellular response to treatment with select confirmed TRIB1 inducer hits. The results of the ELISA, CTG, and qPCR secondary assays are summarized in Table B. For all secondary assays, the experiments were performed using powders of freshly purified compounds.
(§5) To further characterize the relationship of TRIB1 induction and PCSK9 reduction, ELISAs were performed to measure the levels of secreted ApoB, PCSK9, and LDLR. […] As predicted treatment with TRIB1 inducer hits caused a decrease in ApoB levels detected by ELISA. In parallel effort, 3200 BIOA and NATP compounds were screened for PCSK9 expression inhibitors. Hits were defined as inducing greater than 3-fold downregulation of PCSK9, and 3.8% of the screened compounds were confirmed as hits. […] In further experiments, a strong correlation was confirmed between TRIB1 induction and PCSK9 repression in DOS Collection hits. ELISA analysis confirmed that treatment with TRIB1 inducers reduced the PCSK9 protein levels. LDLR protein levels were also analyzed by ELISA to determine whether compounds that modulate both TRIB1 and PCSK9 had any effect on LDLR protein levels.

[7] = tested on: LDLR; test: qPCR LDLR expression in HepG2 cells; type: cell-based, human; details: for qPCR LDLR: HepG2 cells
Description: as §1, §2, §3

[8] = tested on: SCAP; test: qPCR SCAP transcript level in HepG2 cells; type: cell-based, human; design: key: A: Increase <2-fold; B: Increase >2-fold; X: Decrease <2-fold; Y: Decrease >2-fold; No significant change
Description: as §1, §2

[9] = tested on: PCSK9; test: ELISA of secreted PCSK9 protein in HepG2 cells; type: cell-based, human; details: HepG2 cells
Description: as §4, §5

[10] = tested on: SREBF2; test: qPCR SREBF2 transcript level in HepG2 cells; type: cell-based, human; design: key: A: Increase <2-fold; B: Increase >2-fold; X: Decrease <2-fold; Y: Decrease >2-fold; No significant change
Description: as §1, §2

[11] = tested on: LDLR; test: ELISA of LDLR protein in HepG2 cells; type: cell-based, human; details: HepG2 cells
Description: as §4, §5

[12] = tested on: TRIB1; test: qPCR TRIB1 expression in HepG2 cells; type: cell-based, human; design: key to qPCR TRIB1: A: Increase <2-fold; B: Increase >2-fold; X: Decrease <2-fold; Y: Decrease >2-fold; No significant change; details: for fold induction at 10 µM: Homo sapiens, 20 h
Description: as §1, §2, §3

[13] = tested on: HepG2 cells; test: Cell Titer Glo (CTG) cell viability assay; type: cell-based, human; design: key: A: Increase <2-fold; B: Increase >2-fold; X: Decrease <2-fold; Y: Decrease >2-fold; No significant change; details: cell viability (ATP)
Description: Cell viability was determined using a Cell Titer Glo (CTG) assay ([…]) after treatment with TRIB1 inducer compounds. In this assay, the number of viable cells in culture is based on quantitation of ATP, which indicates metabolically active cells. Addition of the reagent results in cell lysis and generation of a luminescent signal proportional to the amount of ATP present, which is directly proportional to the number of viable, metabolically active cells present in culture. Most TRIB1 inducer compounds had no significant effect on cell viability.

[14] = tested on: HMGCS; test: qPCR HMGCS transcript level in HepG2 cells; type: cell-based; details: Homo sapiens, 20 h
Description: as §1, §2

Row | Compound | fold induction at 10 µM [1] | fold induction at 10 µM [2] | fold induction at 10 µM [3] | qPCR HMGCR [4] | qPCR SREBF1 [5] | ELISA ApoB [6] | qPCR LDLR [7] | qPCR SCAP [8] | ELISA PCSK9 [9] | qPCR SREBF2 [10] | ELISA LDLR [11] | fold induction at 10 µM ([12]; HepG2 cells) | CTG [13] | fold induction at 10 µM [14] | increase of PCSK9 mRNA levels ([2]; time course, HepG2) [fold] | increase of LDLR mRNA levels ([7]; time course, HepG2) [fold] | TRIB1 expression (in words) ([12]; HepG2, qPCR) | qPCR TRIB1 ([12]; HepG2 cells)
1 | Cc1cc(C(=O)Nc2ccc3c(c2)C(=O)N(C)[C@H]2CC[C@@H](CC(=O)NCc4ccc(-c5ccccc5)cc4)O[C@@H]2CO3)no1 [Compound 3a] | > 2 | > 2 | > 2 | Y (Decrease >2-fold) | N | Y (Decrease >2-fold) | B (Increase >2-fold) | N | X (Decrease <2-fold) | B (Increase >2-fold) | B (Increase >2-fold) | > 2 | N | > 2 |  |  |  | 
2 | O=C(C[C@H]1CC[C@H]2[C@@H](COC[C@@H](O)CN2Cc2ccc(Oc3ccccc3)cc2)O1)N1CCc2ccccc2C1 [Compound 7a] | < 2 | > 2 | < 2 | Y (Decrease >2-fold) | N | Y (Decrease >2-fold) | B (Increase >2-fold) | N | Y (Decrease >2-fold) | N | B (Increase >2-fold) | > 2 | N | > 2 |  |  |  | 
3 | O=C(C[C@H]1CC[C@@H]2[C@H](COC[C@H](O)CN2Cc2ccc(Oc3ccccc3)cc2)O1)N1CCc2ccccc2C1 [Compound 9a] | > 2 | > 2 | > 2 | Y (Decrease >2-fold) | N | Y (Decrease >2-fold) | B (Increase >2-fold) | N | Y (Decrease >2-fold) | B (Increase >2-fold) | B (Increase >2-fold) | > 2 | X (Decrease <2-fold) | > 2 |  |  |  | 
4 | O=C(C[C@H]1C[C@H]2c3cc(NS(=O)(=O)c4ccc(F)cc4)ccc3O[C@H]2[C@H](CO)O1)NCc1ccc(Oc2ccccc2)cc1 [Compound 13a] | > 2 | > 2 | < 2 | Y (Decrease >2-fold) | N | Y (Decrease >2-fold) | B (Increase >2-fold) | N | Y (Decrease >2-fold) | N | X (Decrease <2-fold) | > 2 | N | > 2 |  |  |  | 
5 | CC(C)c1c(C(=O)Nc2ccccc2)c(-c2ccccc2)c(-c2ccc(F)cc2)n1CC[C@@H](O)C[C@@H](O)CC(=O)O [Atorvastatin, atorvastatin, reference compound] | < 2 | > 2 | < 2 | N | N | X (Decrease <2-fold) | B (Increase >2-fold) | N | A (Increase <2-fold) | A (Increase <2-fold) | A (Increase <2-fold) |  | N | < 2 | ~2 | ~2 | did not significantly affect | N
6 | O=C(C[C@H]1C[C@H]2c3cc(NC(=O)c4ccc5c(c4)OCO5)ccc3O[C@H]2[C@H](CO)O1)NCc1ccc(Oc2ccccc2)cc1 [Compound 11a] | > 2 | > 2 | > 2 | Y (Decrease >2-fold) | Y (Decrease >2-fold) | Y (Decrease >2-fold) | B (Increase >2-fold) | N | Y (Decrease >2-fold) | Y (Decrease >2-fold) | B (Increase >2-fold) | > 2 | Y (Decrease >2-fold) | > 2 |  |  |  | 
